Assay results: ChEMBL document CHEMBL5226330, “Synthesis of Oxazino[4,3-a]indoles and biological applications” (2021)

Species on record: Mus musculus
Experiment: Antidepressant activity against […] Swiss albino mouse model assessed as […]
Type: functional

SMILES	ED50 [mg/kg]
CNCCC1(C)OCCn2c1c(C)c1ccccc12.Cl (stereo not drawn)	0.5
Cc1c2n(c3ccccc13)CCOC2(C)CCN(C)C.Cl (stereo not drawn)	2
Cc1c2n(c3ccccc13)CCOC2(C)CCCN(C)C.Cl (stereo not drawn)	2.9
